Molecules are shown by their SMILES.

We go through 3 compounds from ChEMBL document CHEMBL1144128, “A new bisabolene epoxide from Tussilago farfara, and inhibition of nitric oxide synthesis in LPS-activated macrophages” (J Nat Prod, 1999).

Assay [1] deals with RAW264.7. Briefly: Inhibition of LPS-induced nitric oxide synthesis in mouse RAW264.7 macrophages at 0.1 uM after 18 hrs of LPS challenge measured after 18 hrs by ELISA relative to LPS-treated control. The note with it: RAW264.7, 18 h. The class given is functional. Background: In an ELISA, binding on a coated surface is turned into a signal by an enzyme label.
The subject of assay [2] is RAW264.7. Put plainly: Inhibition of LPS-induced nitric oxide synthesis in mouse RAW264.7 macrophages at 0.1 uM pretreated 18 hrs before arginine challenge assessed after 18 hrs by ELISA relative to LPS-treated control. The class given is functional.
In assay [3] the test system is RAW264.7. Put plainly: Inhibition of LPS-induced nitric oxide synthesis in mouse RAW264.7 macrophages at 0.1 uM after 18 hrs by ELISA relative to LPS-treated control. Type of assay: functional. Particulars: RAW264.7, 18 h.
The subject of assay [4] is RAW264.7. Put plainly: Inhibition of LPS-induced nitric oxide synthesis in mouse RAW264.7 macrophages after 18 hrs of LPS challenge measured after 18 hrs by ELISA relative to LPS-treated control. The class given is functional.
Assay [5] relates to RAW264.7. Put plainly: Inhibition of LPS-induced nitric oxide synthesis in mouse RAW264.7 macrophages at 30 uM after 18 hrs of LPS challenge measured after 18 hrs by ELISA relative to LPS-treated control. Type of assay: functional. Particulars: RAW264.7, 18 h.
Assay [6] deals with RAW264.7. Put plainly: Inhibition of LPS-induced nitric oxide synthesis in mouse RAW264.7 macrophages after 18 hrs by ELISA. Type of assay: functional, cell-based.
Assay [7] relates to RAW264.7. Briefly: Inhibition of LPS-induced nitric oxide synthesis in mouse RAW264.7 macrophages at 30 uM pretreated 18 hrs before arginine challenge assessed after 18 hrs by ELISA relative to LPS-treated control. Type of assay: functional.
The test system of assay [8] is RAW264.7. Put plainly: Inhibition of LPS-induced nitric oxide synthesis in mouse RAW264.7 macrophages at 30 uM after 18 hrs by ELISA relative to LPS-treated control. The class given is functional. The note with it: RAW264.7, 18 h.

Regarding `CNC(=N)NCCC[C@H](N)C(=O)O` [TILARGININE], the inhibition (as a rule, the relative decrease from the control value, in per cent) at 0.1 µM in the assay with RAW264.7 [1] stood at 53.3%; with RAW264.7 [2], 25.8%; in the assay on RAW264.7 [3], 60.5%.

For `N=C(N)NN` [PIMAGEDINE], in the assay with RAW264.7 [4], the “inhibition (INH)” value is listed as 78.8%.

`C=C(C(CC=C(C)C)OC(=O)/C(C)=C\C)C1[C@H](OC(C)=O)C(=O)[C@@]2(C)O[C@H]2[C@@H]1OC(C)=O` (some centres undefined): the inhibition at 30 µM is 11.1% in the assay with RAW264.7 [5], 68.9% with RAW264.7 [7] and 71.1% in the assay with RAW264.7 [8]. Further, in the assay on RAW264.7 [6], the Activity entry is “Dose-dependent effect”. Besides, it took 8.9 µM to reach half-maximal inhibition in the assay on RAW264.7 [6] (RAW264.7, 18 h) (IC50).
